The structures appear in SMILES notation. Where “and” joins values, the source holds several entries; their conditions need not be identical. Identical values can stand only once. Like-named read-outs stand apart in the source and are kept apart here.

Data set [1] has as its system GAB1 Y627 phosphorylation. Put plainly: Inhibition of GAB1 Y627 phosphorylation in T47D cells. The data set is classed as cell-based. The note with it: Homo sapiens, Y627, 20 μM compound 4 hr, HGF stimulated, read-out: % pGAB1 inhibition. As for the experimental part: For all biological assays, hit compounds were added at 20 μM concentration directly into the culture media of the cells for 4 hr following a 16 hr incubation of T47D cells without FBS. Cells were stimulated with HGF for 20 min at 50 ng/ml. Following this treatment, cells were lysed and equal amounts of total cell lysate were loaded on a pSer^312-IRS-1/Total IRS-1 Meso Scale Discovery plate as described by the manufacturer. The plate was read using a Sector™Imager 2400A instrument (Meso Scale Discovery protein profiling system, Gaithersburg, Md.). For the measurement of GAB1 phosphorylation, T47D cells were treated as for the phosphorylation of IRS1 evaluation. […] Each experiment was performed at least three times.

For the next data set, the target named is T1, GAB1 PH domain (Homo sapiens, UniProt Q13480).
T1 sequence (Q13480 5-116 limits assumed): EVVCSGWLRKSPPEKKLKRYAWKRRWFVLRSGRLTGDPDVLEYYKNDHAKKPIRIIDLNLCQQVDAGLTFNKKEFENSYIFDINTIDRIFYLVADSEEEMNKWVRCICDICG
Put plainly: SPR binding assay, GAB1 PH domain. The note with it: for Exp. ΔGbind: GAB1, derived from experimental KD or Ki, RT ln(KD).

Data set [2] deals with MDA-MB-231 breast cancer cell line. Put plainly: Cellular proliferation assay (MTT), MDA-MB-231. The conditions noted are these: for IC50: Homo sapiens, MDA-MB-231, 96 h, 4 days growth, MTT, IA: Inactive. The data set is classed as cell-based, human. As for the experimental part: (§1) Two human breast cancer Cell lines and one normal breast cell line were used for this study: T47D ductal missing highlighted section in original pg. 26Type Culture Collection, Rockville, Md.). T47D and MDA-MB-231 cells were maintained in bulk culture in Dulbecco's modified Eagle medium (DMEM) supplemented with 10% heat-inactivated fetal bovine serum (FBS), 4.5 g/L glucose, 100 U/mL penicillin and […] streptomycin in a 5% CO2 atmosphere. MCF-10A cells were maintained in MEGM with other conditions same as the cancer cell lines. […] Cells were confirmed to be mycoplasma free by testing them with an ELISA kit (Roche-Boehringer Mannheim, Indianapolis, Ind.). The hit compounds were freshly prepared in DMSO at a stock concentration of 10 mM. For the evaluation of cellular proliferation, a standard 96-well micro-cytotoxicity assay was performed as described in reference. Briefly, the assay was set up by plating cells at 5,000-10,000 cells per well (depending on cell doubling time) for a growth period of 4 days. The identified hits were added directly to the media, dissolved in DMSO at various concentrations ranging from 1 to 200 μM. The endpoint was spectrophotometric determination of the reduction of 3-(4,5-dimethylthiazol-2-yl)-2,5-diphenyltetrazolium bromide. All assays were performed in triplicates.

The subject of data set [3] is T47D breast cancer cell line. Put plainly: Cellular proliferation assay (MTT), T47D. The data set is classed as cell-based, human. The note with it: for IC50: Homo sapiens, T47D, 96 h, 4 days growth, MTT, IA: Inactive. As for the experimental part: as §1
The target of the next data set is T2, IRS1 PH domain (Homo sapiens, UniProt P35568).
T2 sequence (P35568 12-115 limits assumed): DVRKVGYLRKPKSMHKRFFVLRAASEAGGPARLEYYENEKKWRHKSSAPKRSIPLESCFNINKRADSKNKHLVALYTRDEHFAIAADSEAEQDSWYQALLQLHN
In words: SPR binding assay, IRS1 PH domain (selectivity). The note with it: derived from experimental KD, RT ln(KD).

In data set [4] the test system is MCF-10A breast epithelial cell line. Put plainly: Cellular proliferation assay, MCF-10A. The data set is classed as cell-based, human. The conditions noted are these: data not shown. Here is the method:
Two human breast cancer Cell lines and one normal breast cell line were used for this study: T47D ductal missing highlighted section in original pg. 26Type Culture Collection, Rockville, Md.). T47D and MDA-MB-231 cells were maintained in bulk culture in Dulbecco's modified Eagle medium (DMEM) supplemented with 10% heat-inactivated fetal bovine serum (FBS), 4.5 g/L glucose, 100 U/mL penicillin and […] streptomycin in a 5% CO2 atmosphere. MCF-10A cells were maintained in MEGM with other conditions same as the cancer cell lines. Cells were passaged using 0.25% trypsin and 0.02% EDTA. Cells were confirmed to be mycoplasma free by testing them with an ELISA kit (Roche-Boehringer Mannheim, Indianapolis, Ind.). The hit compounds were freshly prepared in DMSO at a stock concentration of 10 mM. For the evaluation of cellular proliferation, a standard 96-well micro-cytotoxicity assay was performed as described in reference. Briefly, the assay was set up by plating cells at 5,000-10,000 cells per well (depending on cell doubling time) for a growth period of 4 days. The identified hits were added directly to the media, dissolved in DMSO at various concentrations ranging from 1 to 200 μM. The endpoint was spectrophotometric determination of the reduction of 3-(4,5-dimethylthiazol-2-yl)-2,5-diphenyltetrazolium bromide. All assays were performed in triplicates.

A further data set relates to MDA-MB-468 cell line. In words: Cellular proliferation assay, MDA-MB-468. The note with it: Homo sapiens, printed in MDA-MB-231 column with ** footnote, read-out: IC50 (μM), MDA-MB-468 cell line used. The data set is classed as cell-based.
In a further data set the target is GAB2 PH domain (Homo sapiens, UniProt Q9UQC2). In words: Follow-up experiments, GAB2 PH domain. The data set is classed as binding.
Sequence of GAB2 PH domain (Q9UQC2 6-117 limits assumed): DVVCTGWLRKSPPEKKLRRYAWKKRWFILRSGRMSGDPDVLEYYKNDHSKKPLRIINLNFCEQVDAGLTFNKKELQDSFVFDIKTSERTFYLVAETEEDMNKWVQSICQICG
Setting [5] is: competitive binding vs PtdIns(3,4,5)P3 liposomes, values with asterisk, read-out: Kn or Ki (μM) GAB1, *Ki measurement.

Method for IRS1 PH domain: The DNA sequences of human GAB1 and IRS1 PH domain (IRS1 is for selectivity evaluation) were cloned into pGEX-4T1 inducible bacterial expression plasmid (GeneStorm, Invitrogen, Carlsbad, Calif.) transformed into BL21 (DE3) E. Coli. Expression and purification of the recombinant proteins were performed. Binding assays were performed using a Biacore 2000 instrument with the Biacore Control Software v3.2 and BIAevaluation v4.1 analysis software (Biacore, Piscataway, N.J.). Briefly, the PH domain GST-fusion proteins were immobilized on a CMS Sensorchip (Biacore BR-1000-12) using Biacore's Amine Coupling Kit (Biacore BR-1000-50) to a level of 10,000 Response units (RUs). Small molecule analytes at concentrations ranging from one tenth to ten times the predicted KD were injected at a high flow rate (30 μL/min). Dimethylsulfoxide (DMSO) concentrations in all samples and running buffer were 1% (v/v) or less. […] The inventors did triplicate SPR assays for each concentration.

`CCCCCCCCCCCCCCCCCCOC[C@H](COP(=O)(O)OC1C(O)[C@@H](O)C(O)C[C@H]1O)OC` (stereo partly drawn) [DPIEL, reference compound]: in data set [1], the inhibition at 20 µM is 72%.
For `O=S(=O)(NCc1csc2ccc(Cl)cc12)c1cc(S(=O)(=O)c2ccccc2)cs1` [GAB-001], on GAB1 PH domain, the “Exp. ΔGbind” value is -6.91 kcal/mol. On GAB1 PH domain (setting [5]), the Ki is 9.4 µM and 9.38 µM. Also, the half-maximal inhibitory concentration (IC50) in data set [2] was 40.3 ± 1.3 µM; in data set [3], 23.7 ± 2.7 µM. Besides, in data set [1], the inhibition at 20 µM came to 55%.
Regarding `Cn1cnc(S(=O)(=O)Nc2ccccc2SCCS(=O)(=O)c2ccc(Cl)cc2)c1` [GAB-002], the IC50 in data set [2] is 143 ± 11.6 µM; in data set [3], 138 ± 6.9 µM. The inhibition at 20 µM in data set [1] was 32%.
The matching figures for `Cc1nc(-c2cnc(S(=O)(=O)N3CCN(C4c5ccccc5-c5ccccc54)CC3)s2)cs1` [GAB-003]: 85.2 ± 7.2 µM, 13.9 ± 0.6 µM and 14%.
On to `O=c1[nH]nc(SCc2csc(-c3ccccc3)n2)n1Cc1ccco1` [GAB-004], for which the “Exp. ΔGbind” value at GAB1 PH domain was -7.78 kcal/mol. The IC50 was 66.6 ± 4.6 µM in data set [2] and 19.4 ± 2.9 µM in data set [3]. Besides, the inhibition at 20 µM in data set [1] was found to be 81%.
With `CS(=O)(=NS(=O)(=O)c1ccc(-c2ccccn2)s1)c1ccc(Cl)cc1` (stereo not drawn) [GAB-005], the IC50 in data set [2] and in data set [3] was above 200 µM in each case. In addition, the inhibition at 20 µM in data set [1] is 6%.
On to `Cc1cc2ncc(-c3cnc(SCCS(=O)(=O)c4ccc(Cl)cc4)nc3)c(C)n2n1` [GAB-006], for which the inhibition at 20 µM in data set [1] turned out to be 16%. Moreover, half-maximal inhibition in data set [3] (IC50) required 101 ± 1.8 µM.
Regarding `CS(=O)(=O)CCSc1ncccc1C(=O)Sc1ccc(Cl)cc1Cl` [GAB-007], the “Exp. ΔGbind” value at GAB1 PH domain was -6.01 kcal/mol; at IRS1 PH domain, -7.93 kcal/mol. Moreover, the Ki at GAB1 PH domain (SPR direct binding, values without asterisk, NB: No Binding, read-out: Kn or Ki (μM) GAB1) came to 42.3 ± 8.9 µM. In addition, the half-inhibitory concentration (IC50) in data set [2] was 4.6 ± 0.7 µM; in data set [3] it was 20.1 ± 4.3 µM. Besides, the inhibition at 20 µM in data set [1] worked out at 53%.
`O=S(=O)(NCc1csc(-c2cccs2)n1)c1ccc(N2CCOCC2)nc1` [GAB-008]: the results for the IC50 in data set [2] and in data set [3] were above 200 µM and 43.2 ± 3.2 µM, respectively. In addition, in data set [1], the inhibition at 20 µM worked out at 8%.
For `Cc1noc(C)c1NC(=O)NCc1csc(-c2cccs2)n1` [GAB-009], the 50% inhibitory concentration (IC50) in data set [2] is 163 ± 6 µM; in data set [3] it was 97.6 ± 6.1 µM. Further, the inhibition at 20 µM in data set [1] worked out at 38%.
`Cc1onc(-c2ccccc2)c1-c1nc(CSc2nc3ccccc3[nH]2)no1` [GAB-010]: the values for the half-inhibitory concentration (IC50) in data set [2] and in data set [3] were 66 ± 4.4 µM and 23.8 ± 4.2 µM, respectively. Moreover, in data set [1], the inhibition at 20 µM was 92%. For the same compound, the “Exp. ΔGbind” value on IRS1 PH domain was -9.51 kcal/mol.
For `Cn1c(Cc2ccsc2)nnc1SCC(=O)Nc1cc(Cl)cc(Cl)c1` [GAB-011], the IC50 in data set [2] and in data set [3] was above 200 µM each time. The inhibition at 20 µM in data set [1] worked out at 24%.
`O=C(O)c1ccccc1C(=O)Nc1ccccc1SCCS(=O)(=O)c1ccc(Cl)cc1` [GAB-012]: in data set [2], the “killing of MDA-MB-231 at 50 μM” value is “did not effectively kill” and the IC50 is above 200 µM. Moreover, the inhibition at 20 µM in data set [1] is 43%. In addition, the “toxicity to MCF-10A at 100 μM” value in data set [4] was “toxic”. Further, in data set [3], the “killing of T47D at 50 μM” value is on record as “did not effectively kill” and the IC50 was 119 ± 3.6 µM.
For the compound `COc1cc(NS(=O)(=O)c2ccc(NS(=O)(=O)c3c(C)noc3C)cc2)nc(OC)n1` [GAB-013], in data set [2], the “killing of MDA-MB-231 at 50 μM” value is “did not effectively kill” and the IC50 is above 200 µM. The inhibition at 20 µM in data set [1] was 27%. In addition, in data set [4], the “toxicity to MCF-10A at 100 μM” value is “toxic”. Further, in data set [3], the “killing of T47D at 50 μM” value is listed as “did not effectively kill” and the concentration for half-maximal inhibition (IC50) is above 200 µM.
As to `Cc1nnc(NS(=O)(=O)c2ccc(NS(=O)(=O)c3ccc4ccccc4c3)cc2)s1` [GAB-014], the results for the IC50 (with MDA-MB-468 cell line; in data set [3]) were 69.9 ± 0.1 µM and 178 ± 3.9 µM, respectively. Further, the inhibition at 20 µM in data set [1] was determined as 42%.
Regarding `CCCCCCCCCCCCc1ccc(S(=O)(=O)Nc2nnc(CC(=O)O)s2)cc1` [GAB-015], the Ki on GAB1 PH domain (setting [5]) was found to be 13.1 ± 1.5 µM. Besides, the inhibition at 20 µM in data set [1] (T47D, 4 h) worked out at 77%. The IC50 in data set [3] was found to be 125 ± 5.4 µM.
For the compound `CCCCCCCCCCCCc1ccc(S(=O)(=O)Nc2nnc(CC(=O)OCC)s2)cc1` [GAB-016], the “Exp. ΔGbind” value at GAB1 PH domain was -8.31 kcal/mol; on IRS1 PH domain it was -9.38 kcal/mol. In addition, the inhibition at 20 µM in data set [1] (T47D, 4 h) is above 80%. At GAB2 PH domain, the “targeting of GAB2 PH domain” value is recorded as “targets GAB2 PH domain”.
In the case of `CCCCCCCCCCCCc1ccc(S(=O)(=O)Nc2nnc(C(=O)OCC)s2)cc1` [GAB-017], the “Exp. ΔGbind” value at GAB1 PH domain was -8.47 kcal/mol. Further, the inhibition at 20 µM in data set [1] (T47D, 4 h) was above 80%.
For the compound `CCCCCCCCCCCCc1ccc(S(=O)(=O)Nc2nnc(S(N)(=O)=O)s2)cc1` [GAB-018], on GAB1 PH domain (setting [5]), the Ki amounted to 36.6 ± 5 µM. In addition, the “killing of MDA-MB-231 at 50 μM” value in data set [2] is reported as “did not effectively kill”. Further, the inhibition at 20 µM in data set [1] (T47D, 4 h) amounted to 71%. In data set [3], the “killing of T47D at 50 μM” value is “did not effectively kill” and the IC50 stood at 185 ± 2.5 µM.
As to `CCc1ccc(C(=O)OC)cc1CSc1nnc(-c2ccc(C(F)(F)F)cc2)n1Cc1ccoc1` [GAB-019], the inhibition at 20 µM in data set [1] was found to be 91%. For the same compound, in data set [3], 39.4 ± 6.2 µM corresponded to half-maximal inhibition (IC50).
Regarding `CCCCCCCCCCCCc1ccc(S(=O)(=O)Nc2nncs2)cc1` [GAB-020], the inhibition at 20 µM in data set [1] was found to be 87%.

The record behind these values is patent US11432547B2, “Inhibitors of GRB2-associated binding protein 1 (GAB1) and methods of treating cancer using the same” (Arizona Board of Regents on Behalf of the University of …, priority 2014, dated 2022).
